{
  "source": "patent US10821126B2",
  "about": "“Agent for treating retinopathy” (CARNA HEALTH SUPPORT LTD., priority 2016, dated 2020)",
  "key": {"[1]": {"tested_on": "diabetic retinopathy having macular edema", "assay": "Cases of diabetic retinopathy having macular edema, assessed by optical coherence tomography (OCT), HbA1c and vision", "type": "in vivo, human", "procedure": "To four cases of diabetic retinopathy having macular edema to which conventional intraocular injection of steroid or anti-VEGF antibody was not effective, the therapeutic agent of the present invention (existing SGLT2 inhibitor) was administered at a normal dosage amount or at a lower dosage amount, and the effect was confirmed. Specifically, for the three cases using dapagliflozin and one case using canagliflozin, the effect was confirmed by assessment using optical coherence tomography (OCT). Person; suffering from type 2 diabetes, accompanied with proliferative retinopathy in both eyes, and macular edema in both eyes. Steroid sub-tenon injection was frequently performed but was treatment-resistant. […], person; suffering from type 2 diabetes, accompanied with proliferative retinopathy in both eyes, and macular edema in both eyes. Steroid sub-tenon injection was performed but was treatment-resistant. […], person; suffering from type 2 diabetes, accompanied with simple diabetic retinopathy in both eyes, and macular edema in right eye. […], person; suffering from type 2 diabetes, accompanied with preproliferative diabetic retinopathy in both eyes, and macular edema in right eye. Steroid intraocular injection was performed to right eye macular edema, but was resistant."}, "[2]": {"tested_on": "increase of retinal vascular permeability in db/db mouse", "assay": "Retinal vascular permeability (retinal albumin amount by western blot) in spontaneous type 2 diabetes model db/db mouse", "type": "in vivo", "conditions": "oral", "procedure": "Subsequently, the amelioration effect on diabetic retinal function (amelioration effect on permeability increase which is a representative abnormality of diabetic retinal vessels) by the therapeutic agent of the present invention (existing SGLT2 inhibitor agent) was confirmed by using spontaneous type 2 diabetes model db/db mouse.\nSince 8 weeks after birth of spontaneous type 2 diabetes model db/db mouse, a dosage amount (10 mg/kg/day as luseogliflozin) of luseogliflozin hydrate which is an existing SGLT2 inhibitor agent, with which an antihyperglycemic action is confirmed in mouse was orally administered. Two weeks after administration of SGLT2 inhibitor agent, the mouse was euthanized, and all blood vessels were sufficiently refluxed with 10 ml of phosphate buffer solution (PBS), and the eyeballs were extracted. After isolating retina, the albumin amount in the retinal tissues leaked from the blood vessels was measured by western blott method, to assess the vascular permeability increase. The albumin amount in retina was corrected with […], and is shown by % control by using control db/+ mouse as a standard.\nNext, similarly as for luseogliflozin, the function improvement on increase of retinal vascular permeability was assessed using canagliflozin. Canagliflozin hydrate which is an existing SGLT2 inhibitor agent was orally administered for 2 weeks, at a dosage amount (3 mg/kg/day as canagliflozin) with which an antihyperglycemic action is confirmed in mouse, and at a low dosage (0.01 mg/kg/day as canagliflozin) not showing an antihyperglycemic action."}, "[3]": {"tested_on": "spontaneous type 2 diabetes model db/db mouse", "assay": "Effects on body weight, feed intake, urine volume and blood sugar in db/db mouse", "type": "in vivo", "conditions": "oral, 2 weeks", "procedure": "The above-mentioned low dosage (0.01 mg/kg/day as canagliflozin) not showing an antihyperglycemic action was confirmed by the following method.\n[…] Effects on body weight, feed intake, urine volume and blood sugar were confirmed.\nFIGS. 6 and 7 show the results of fructosamine level which is an index for fasting blood sugar and average blood sugar levels when administering 3 mg/kg/day and 0.01 mg/kg/day of canagliflozin hydrate."}, "[4]": {"conditions": "authorized minimum dosage amount; cited from earlier work"}, "SGLT2": {"biological_target": "T1, SGLT2 (Homo sapiens, UniProt P31639)", "T1 sequence (P31639 1-672)": "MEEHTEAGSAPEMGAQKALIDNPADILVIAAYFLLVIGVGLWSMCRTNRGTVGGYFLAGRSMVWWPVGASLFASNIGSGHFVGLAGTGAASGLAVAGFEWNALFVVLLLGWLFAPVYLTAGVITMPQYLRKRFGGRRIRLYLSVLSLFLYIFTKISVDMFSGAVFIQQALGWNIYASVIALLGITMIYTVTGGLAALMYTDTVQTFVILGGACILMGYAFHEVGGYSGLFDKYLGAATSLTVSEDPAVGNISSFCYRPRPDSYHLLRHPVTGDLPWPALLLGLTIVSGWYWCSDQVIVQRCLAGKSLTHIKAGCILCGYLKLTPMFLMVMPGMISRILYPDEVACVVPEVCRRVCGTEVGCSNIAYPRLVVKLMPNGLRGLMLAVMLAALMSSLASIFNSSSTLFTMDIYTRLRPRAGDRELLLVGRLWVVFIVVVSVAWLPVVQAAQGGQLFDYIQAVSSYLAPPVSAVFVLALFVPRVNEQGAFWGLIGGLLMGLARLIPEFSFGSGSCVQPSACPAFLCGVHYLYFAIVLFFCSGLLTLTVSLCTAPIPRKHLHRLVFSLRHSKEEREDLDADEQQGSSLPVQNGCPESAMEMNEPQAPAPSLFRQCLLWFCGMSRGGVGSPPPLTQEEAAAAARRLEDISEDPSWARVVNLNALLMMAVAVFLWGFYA", "conditions": "cited from earlier work"}},
  "note": "Where “and” joins values, the source holds several entries; their conditions need not be identical. Identical values can stand only once.",
  "data": [
    {"compound": "Cc1ccc([C@@H]2O[C@H](CO)[C@@H](O)[C@H](O)[C@H]2O)cc1Cc1ccc(-c2ccc(F)cc2)s1", "note": "[canagliflozin hydrate]", "values": [
      {"measurement": "blood sugar control", "setting": "[1]; Case 2, 100 mg/day as canagliflozin", "value": "no change in blood sugar control"},
      {"measurement": "HbA1 after administration", "setting": "[1]; Case 2, 100 mg/day as canagliflozin, 8.0 before administration, hydrate", "value": "8.4 and 8.1 and 7.8"},
      {"measurement": "OCT findings", "setting": "[1]; Case 2, 100 mg/day as canagliflozin, about 5 months after initiation of administration", "value": "decrease of macular retinal thickness, cyst reduction, and significant amelioration of laminar structure"},
      {"measurement": "vision, right eye, after administration", "setting": "[1]; Case 2, 100 mg/day as canagliflozin, from 0.4", "value": 0.5},
      {"measurement": "vision, left eye, after administration", "setting": "[1]; Case 2, 100 mg/day as canagliflozin, from 0.7", "value": 1.2},
      {"measurement": "increase of retinal albumin amount (retinal vascular permeability)", "setting": "[2]; 0.01 mg/kg/day as canagliflozin, 2 weeks", "value": "significantly ameliorated to the control group level"},
      {"measurement": "increase of retinal albumin amount (retinal vascular permeability)", "setting": "[2]; 3 mg/kg/day as canagliflozin, 2 weeks", "value": "significantly ameliorated to the control group level"},
      {"measurement": "blood sugar", "setting": "[3]; 0.001 mg/kg/day", "value": "no significant decrease"},
      {"measurement": "blood sugar", "setting": "[3]; 0.01 mg/kg/day, hydrate", "value": "no significant blood sugar decrease"},
      {"measurement": "blood sugar", "setting": "[3]; 0.1 mg/kg/day", "value": "no significant decrease"},
      {"measurement": "fructosamine level which is an index for fasting blood sugar and average blood sugar levels", "setting": "[3]; 3 mg/kg/day, vs non-administered group (FIGS. 6 and 7)", "value": "significantly decreased"}
    ]},
    {"compound": "CCOc1ccc(Cc2cc([C@@H]3O[C@H](CO)[C@@H](O)[C@H](O)[C@H]3O)ccc2Cl)cc1", "note": "[dapagliflozin propylene glycol hydrate]", "values": [
      {"measurement": "HbA1 after administration", "setting": "[1]; Case 1, 2.5 mg/day as dapagliflozin, 6.7 before administration", "value": 6.6},
      {"measurement": "vision, left eye, after administration", "setting": "[1]; Case 1, 2.5 mg/day as dapagliflozin, did not change", "value": 1.2},
      {"measurement": "vision, right eye, after administration", "setting": "[1]; Case 1, 2.5 mg/day as dapagliflozin, from 0.7", "value": 0.8},
      {"measurement": "vision after administration", "setting": "[1]; Case 3, 2.5 mg/day as dapagliflozin, from 0.15", "value": 0.2},
      {"measurement": "HbA1c after administration", "setting": "[1]; Case 3, 2.5 mg/day as dapagliflozin, from 8.7", "value": 8.0},
      {"measurement": "vision", "setting": "[1]; Case 4, 2.5 mg/day as dapagliflozin, did not change due to severe retinopathy", "value": 0.1},
      {"measurement": "HbA1c after administration", "setting": "[1]; Case 4, 2.5 mg/day as dapagliflozin, from 5.9, no change", "value": 6.1, "unit": "%"}
    ]},
    {"compound": "OC[C@H]1O[C@@H](c2ccc(Cl)c(Cc3ccc(O[C@H]4CCOC4)cc3)c2)[C@H](O)[C@@H](O)[C@@H]1O", "note": "[empagliflozin]", "values": [
      {"measurement": "maximum blood concentration (Cmax) in the minimum dosage amount, relative to that of canagliflozin", "setting": "[4]", "value": "approximately 1/10"},
      {"measurement": "IC50 level showing the inhibition activity, compared with canagliflozin", "setting": "SGLT2", "value": "similar"}
    ]},
    {"compound": "OC[C@H]1O[C@@H](c2ccc(F)c(Cc3cc4ccccc4s3)c2)[C@H](O)[C@@H](O)[C@@H]1O", "note": "[ipragliflozin L-proline]", "values": [
      {"measurement": "IC50 level showing the inhibition activity, compared with canagliflozin", "setting": "SGLT2", "value": "similar"}
    ]},
    {"compound": "CCOc1ccc(Cc2cc([C@@H]3S[C@H](CO)[C@@H](O)[C@H](O)[C@H]3O)c(OC)cc2C)cc1", "note": "[luseogliflozin hydrate]", "values": [
      {"measurement": "increase of retinal albumin amount (retinal vascular permeability)", "setting": "[2]; 10 mg/kg/day as luseogliflozin, two weeks", "value": "significantly ameliorated to the control group level"},
      {"measurement": "maximum blood concentration (Cmax) in the minimum dosage amount, relative to that of canagliflozin", "setting": "[4]", "value": "approximately 1/10"},
      {"measurement": "IC50 level showing the inhibition activity, compared with canagliflozin", "setting": "SGLT2", "value": "similar"}
    ]},
    {"compound": "CCc1ccc(Cc2ccc3c(c2)[C@]2(OC3)O[C@H](CO)[C@@H](O)[C@H](O)[C@H]2O)cc1", "note": "[tofogliflozin hydrate]", "values": [
      {"measurement": "maximum blood concentration (Cmax) in the minimum dosage amount, relative to that of canagliflozin", "setting": "[4]", "value": "approximately 1/10"},
      {"measurement": "IC50 level showing the inhibition activity, compared with canagliflozin", "setting": "SGLT2", "value": "similar"}
    ]}
  ]
}
